IC50 data for 21 compounds are collected here from US20250282785A1, “PYRROLIDINONE DERIVATIVES AS INHIBITORS OF NF KAPPA B INDUCING KINASE” (priority 2022, published 2025).

Assay [1] deals with Recombinant Human NF-Kappab-Inducing Kinase (NIK/MAP3K14) (Homo sapiens, UniProt Q99558). Put plainly: Inhibition of auto-phosphorylation of recombinant human NIK/MAP3K14 (AlphaScreen). The format is biochemical. Particulars: NIK/MAP3K14 auto-phosphorylation, 5 microM ATP, 1 nM enzyme, 2 h at 25° C.; average of values; read-out: Assay 1 IC50. The procedure:
Biological Assay 1: Inhibition of Auto-Phosphorylation of Recombinant Human NF-Kappab-Inducing Kinase (NIK/MAP3K14) Activity (AlphaScreen®)
NIK/MAP3K14 auto-phosphorylation activity was measured using the AlphaScreen® ((αscreen) format (Perkin ElmeR). All compounds tested were dissolved in dimethyl sulfoxide (DMSO) and further dilutions were made in assay buffer. Final DMSO concentration was 0.7% (v/v) in assays. Assay buffer was 50 mM Tris pH 7.5 containing 1 mM EGTA (ethylene glycol tetraacetic acid), 1 mM DTT (dithiothreitol), 0.1 mM Na3VO4, 5 mM MgCl2, 0.01% Tween® 20. Assays were carried out in 384 well Proxiplates (Perkin ElmeR). Incubations consisted of compound, 5 microM Adenosine-5′-triphosphate (ATP), and 1 nM NIK/MAP3K14. Incubations were initiated by addition of GST-tagged NIK/MAP3K14 enzyme, carried out for 2 h at 25° C. and terminated by addition of stop buffer containing anti-phospho-IKK Ser176/180 antibody. Protein A Acceptor and Glutathione-donor beads were added before reading using an EnVision® Multilabel Plate Reader (Perkin ElmeR). Signal obtained in the wells was normalized using high (full enzyme activity, 0.7% DMSO) and low controls (no enzyme activity, 0.7% DMSO, no ATP). IC50's were determined by fitting a sigmoidal curve to % inhibition of control versus Log10 compound concentration.

In assay [2] the test system is p-IKKα levels in L363 (NIK translocated multiple myeloma) cells. The assay is described as follows: Effect of compounds on p-IKKα levels in L363 cells (AlphaLISA SureFire Ultra). The format is cell-based. Particulars: Homo sapiens, L-363; L363 cells, BAFF stimulated, MG132, 6 h; average of values; read-out: Assay 2 IC50. As to the method: Biological Assay 2: Effect of Compounds on p-IKKα Levels in L363 (NIK Translocated Multiple Myeloma) Cells
All compounds tested were dissolved and serially diluted in DMSO, 1:3 dilution for 11 points in an Echo compatible plate. 100% DMSO is added to columns 12 and 24 of the plate to serve as high and low signal controls. This compound plate was used to spot 20 nl of compound or DMSO into a Greiner 384 well TC plate (781080). Final DMSO concentration was […] (v/v) in cell assays. Human L363 cells (ATCC) were cultured in RPMI 1640 medium supplemented with GlutaMax, non-essential amino acids, sodium pyruvate and 10% fetal bovine serum. Cells were routinely maintained at densities of 0.2×10^6 cells per ml −2×10^6 cells per ml at 37° C. in a humidified 5% CO2 atmosphere incubator. Cells were passaged twice a week splitting back to obtain the low density. The day before the assay, cells were washed twice in HBSS, resuspended in DMEM+0.5% IgG and protease free BSA (Jackson Immuno Research Laboratories), +/−250 ng/ml recombinant human B-cell activating factor (BAFF/BLyS/TNFSF13B) and incubated overnight at 37° C. in a humidified 5% CO2 atmosphere (bulk stimulation with or without BAFF). The next day, cell concentration was adjusted to 1×10^7 cells/ml in DMEM+/−250 ng/ml BAFF+/−10 uM MG132 and plated at 10 ul/well into compound or DMSO spotted 384 well TC plates. Seeded cells were incubated at 37° C. in a humidified 5% CO2 atmosphere for 6 h. After 6 h, plates were removed from the incubator and cell lysis was achieved by the addition of 2.5 μl 5× lysis buffer containing protease and phosphatase inhibitors, followed by shaking on a plate shaker at room temperature for 15 min. At the end of this incubation, lysed cells were sequentially treated and incubated with acceptor and donor bead mixes according to the manufacturer's protocol for a 1 plate/2-incubation suspension cell assay (AlphaLISA SureFire Ultra p-IKKα (Ser 176/180) Assay Kit (Perkin ElmeR). Plates were read using an EnVision® Multilabel Plate Reader (Perkin ElmeR). Within an experiment, a concentration response curve for each compound was run in duplicate. Signal obtained in the test wells was normalized using high signal (BAFF stimulated cells, DMSO, MG132) and low signal (unstimulated cells, DMSO) controls. To determine the IC50, a sigmoidal curve was fitted to the plot of % inhibition versus Log10 compound concentration.

Recombinant Human NF-Kappab-Inducing Kinase (NIK/MAP3K14), sequence (Q99558 whole entry): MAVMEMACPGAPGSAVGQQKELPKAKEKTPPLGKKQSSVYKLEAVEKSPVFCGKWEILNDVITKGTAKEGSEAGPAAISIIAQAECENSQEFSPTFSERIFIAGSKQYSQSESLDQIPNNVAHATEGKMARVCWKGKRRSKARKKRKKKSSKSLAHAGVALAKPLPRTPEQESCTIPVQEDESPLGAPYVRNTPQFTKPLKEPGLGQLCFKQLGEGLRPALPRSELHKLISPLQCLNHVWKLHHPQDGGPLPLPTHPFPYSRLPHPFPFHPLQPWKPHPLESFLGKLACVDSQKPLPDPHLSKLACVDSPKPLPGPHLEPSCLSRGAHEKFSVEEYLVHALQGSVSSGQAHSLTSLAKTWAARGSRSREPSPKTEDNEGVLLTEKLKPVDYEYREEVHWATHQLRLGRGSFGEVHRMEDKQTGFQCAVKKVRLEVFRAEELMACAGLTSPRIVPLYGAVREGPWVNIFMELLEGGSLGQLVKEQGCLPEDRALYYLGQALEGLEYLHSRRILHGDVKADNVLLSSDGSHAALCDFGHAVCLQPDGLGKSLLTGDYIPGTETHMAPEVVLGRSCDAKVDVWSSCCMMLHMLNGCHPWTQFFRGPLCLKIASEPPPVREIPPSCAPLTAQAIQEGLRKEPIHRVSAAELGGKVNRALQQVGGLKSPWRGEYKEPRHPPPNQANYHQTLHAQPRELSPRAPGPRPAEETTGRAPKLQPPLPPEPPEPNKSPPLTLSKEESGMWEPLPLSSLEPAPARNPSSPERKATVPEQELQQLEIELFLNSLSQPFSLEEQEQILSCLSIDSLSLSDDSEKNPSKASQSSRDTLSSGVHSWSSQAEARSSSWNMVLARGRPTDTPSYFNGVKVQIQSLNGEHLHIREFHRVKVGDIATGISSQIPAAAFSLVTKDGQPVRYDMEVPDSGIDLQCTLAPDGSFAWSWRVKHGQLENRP

`Cc1ncnc2ccc(-c3cccc(-c4cc([C@]5(O)CCN(C)C5=O)on4)c3)nc12` [Example 25, (R)-3-Hydroxy-1-methyl-3-(3-(3-(4-methylpyrido[3,2-d]pyrimidin-6-yl)phenyl)isoxazol-5-yl)pyrrolidin-2-one]: the IC50 was 0.1 to 0.5 µM in assay [1] and over 0.501 µM in assay [2].

Regarding `Cc1cc(-c2cccc(-c3cc([C@]4(O)CCN(C)C4=O)on3)c2)nc2c(N)ncnc12` [Example 26, (R)-3-(3-(3-(4-Amino-8-methylpyrido[3,2-d]pyrimidin-6-yl)phenyl)isoxazol-5-yl)-3-hydroxy-1-methylpyrrolidin-2-one], the IC50 in assay [1] and in assay [2] was under 0.1 µM in each case.

Turning to `Cc1cc(-c2cccc(-c3cc([C@@]4(O)CCN(C)C4=O)on3)c2)nc2c(N)ncnc12` [Example 27, (S)-3-(3-(3-(4-Amino-8-methylpyrido[3,2-d]pyrimidin-6-yl)phenyl)isoxazol-5-yl)-3-hydroxy-1-methylpyrrolidin-2-one], the IC50 in assay [1] and in assay [2] was over 0.501 µM in each case.

For `[2H]c1nc(N)c2nc(-c3cccc(-n4cc([C@]5(O)CCN(C)C5=O)nn4)c3)ccc2n1` [Example 35, (R)-3-(1-(3-(4-Aminopyrido[3,2-d]pyrimidin-6-yl-2-d)phenyl)-1H-1,2,3-triazol-4-yl)-3-hydroxy-1-methylpyrrolidin-2-one], the IC50 in assay [1] was under 0.1 µM; in assay [2] it was over 0.501 µM.

As for `[2H]c1nc(N)c2nc(-c3cccc(-n4cc([C@@]5(O)CCN(C)C5=O)nn4)c3)ccc2n1` [Example 36, (S)-3-(1-(3-(4-Aminopyrido[3,2-d]pyrimidin-6-yl-2-d)phenyl)-1H-1,2,3-triazol-4-yl)-3-hydroxy-1-methylpyrrolidin-2-one], the IC50 in assay [1] is 0.1 to 0.5 µM; in assay [2], over 0.501 µM.

`CN1CC[C@](O)(c2cn(-c3cccc(-c4cccc(C(N)=O)n4)c3)nn2)C1=O` [Example 42, (S)-6-(3-(4-(3-Hydroxy-1-methyl-2-oxopyrrolidin-3-yl)-1H-1,2,3-triazol-1-yl)phenyl)picolinamide]: the IC50 in assay [1] and in assay [2] was over 0.501 µM in each case.

`Cc1cc(-c2cccc(-c3cc([C@]4(O)CCN(C)C4=O)on3)c2)nc(C(N)=O)c1N` [Example 45, (R)-3-Amino-6-(3-(5-(3-hydroxy-1-methyl-2-oxopyrrolidin-3-yl)isoxazol-3-yl)phenyl)-4-methylpicolinamide]: the IC50 in assay [1] and in assay [2] was under 0.1 µM throughout.

On to `COc1cc(-c2cccc(-c3cc([C@]4(O)CCN(C)C4=O)on3)c2)nc(C(N)=O)c1N` [Example 46, (R)-3-Amino-6-(3-(5-(3-hydroxy-1-methyl-2-oxopyrrolidin-3-yl)isoxazol-3-yl)phenyl)-4-methoxypicolinamide], for which the IC50 in assay [1] and in assay [2] was under 0.1 µM each time.

In the case of `COc1cc(-c2cccc(-c3cc([C@]4(O)CCN(C)C4=O)on3)c2)cc(C(N)=O)n1` [Example 47, (R)-4-(3-(5-(3-Hydroxy-1-methyl-2-oxopyrrolidin-3-yl)isoxazol-3-yl)phenyl)-6-methoxypicolinamide], the half-maximal inhibitory concentration (IC50) in assay [1] and in assay [2] was over 0.501 µM each time.

As for `COc1cc(-c2cccc(-c3cc([C@]4(O)CCN(C)C4=O)on3)c2)nc2c1cnn2C` [Example 48, (R)-3-Hydroxy-3-(3-(3-(4-methoxy-1-methyl-1H-pyrazolo[3,4-b]pyridin-6-yl)phenyl)isoxazol-5-yl)-1-methylpyrrolidin-2-one], the IC50 was under 0.1 µM in assay [1] and over 0.501 µM in assay [2].

On to `CN1CC[C@@](O)(c2cc(-c3cccc(-c4ccnc5[nH]ccc45)c3)no2)C1=O` [Example 49, (R)-3-(3-(3-(1H-Pyrrolo[2,3-b]pyridin-4-yl)phenyl)isoxazol-5-yl)-3-hydroxy-1-methylpyrrolidin-2-one], for which the figures for the IC50 in assay [1] and in assay [2] were under 0.1 µM and over 0.501 µM, respectively.

Turning to `CN1CC[C@@](O)(c2cc(-c3cccc(-c4cc(C(F)(F)F)c(N)c(C(N)=O)n4)c3)no2)C1=O` [Example 50, (R)-3-Amino-6-(3-(5-(3-hydroxy-1-methyl-2-oxopyrrolidin-3-yl)isoxazol-3-yl)phenyl)-4-(trifluoromethyl)picolinamide], the IC50 in assay [1] and in assay [2] was under 0.1 µM in each case.

Turning to `CN1CC[C@@](O)(c2cc(-c3cccc(-c4ccc5cncn5c4)c3)no2)C1=O` [Example 51, (R)-3-Hydroxy-3-(3-(3-(imidazo[1,5-a]pyridin-6-yl)phenyl)isoxazol-5-yl)-1-methylpyrrolidin-2-one], the IC50 in assay [1] was 0.1 to 0.5 µM; in assay [2], over 0.501 µM.

Regarding `CN1CC[C@@](O)(c2cc(-c3cccc(-c4ncnn5cccc45)c3)no2)C1=O` [Example 52, (R)-3-Hydroxy-1-methyl-3-(3-(3-(pyrrolo[2,1-f][1,2,4]triazin-4-yl)phenyl)isoxazol-5-yl)pyrrolidin-2-one], the results for the IC50 in assay [1] and in assay [2] were 0.1 to 0.5 µM and over 0.501 µM, respectively.

Consider `CN1CC[C@@](O)(c2cc(-c3cccc(-c4ccnc(N)c4)c3)no2)C1=O` [Example 53, (R)-3-(3-(3-(2-Aminopyridin-4-yl)phenyl)isoxazol-5-yl)-3-hydroxy-1-methylpyrrolidin-2-one], for which the IC50 in assay [1] was 0.1 to 0.5 µM; in assay [2], over 0.501 µM.

On to `CC(=O)Nc1cc(-c2cccc(-c3cc([C@]4(O)CCN(C)C4=O)on3)c2)ccn1` [Example 54, (R)—N-(4-(3-(5-(3-Hydroxy-1-methyl-2-oxopyrrolidin-3-yl)isoxazol-3-yl)phenyl)pyridin-2-yl)acetamide], for which the IC50 in assay [1] was 0.1 to 0.5 µM; in assay [2], over 0.501 µM.

As for `CCn1ncc2cc(-c3cccc(-c4cc([C@]5(O)CCN(C)C5=O)on4)c3)cnc21` [Example 55, (R)-3-(3-(3-(1-Ethyl-1H-pyrazolo[3,4-b]pyridin-5-yl)phenyl)isoxazol-5-yl)-3-hydroxy-1-methylpyrrolidin-2-one], the concentration for half-maximal inhibition (IC50) in assay [1] and in assay [2] was over 0.501 µM throughout.

Take `CN1CC[C@@](O)(c2cc(-c3cccc(-c4cc5c(o4)CCNC5=O)c3)no2)C1=O` [Example 56, (R)-2-(3-(5-(3-hydroxy-1-methyl-2-oxopyrrolidin-3-yl)isoxazol-3-yl)phenyl)-6,7-dihydrofuro[3,2-c]pyridin-4(5H)-one]: the IC50 in assay [1] and in assay [2] was over 0.501 µM throughout.

With `Cc1ncn2cc(-c3cccc(-c4cc([C@]5(O)CCN(C)C5=O)on4)c3)ccc12` [Example 57, (R)-3-Hydroxy-1-methyl-3-(3-(3-(1-methylimidazo[1,5-a]pyridin-6-yl)phenyl)isoxazol-5-yl)pyrrolidin-2-one], the IC50 in assay [1] and in assay [2] was over 0.501 µM throughout.

For the compound `CN1CC[C@@](O)(c2cc(-c3cccc(-c4ccn5nccc5c4)c3)no2)C1=O` [Example 58, (R)-3-hydroxy-1-methyl-3-(3-(3-(pyrazolo[1,5-a]pyridin-5-yl)phenyl)isoxazol-5-yl)pyrrolidin-2-one], the concentration for half-maximal inhibition (IC50) in assay [1] was 0.1 to 0.5 µM; in assay [2], over 0.501 µM.

For the compound `CN1CC[C@@](O)(c2cc(-c3cccc(-c4cccc5c4CNC5=O)c3)no2)C1=O` [Example 59, (R)-4-(3-(5-(3-hydroxy-1-methyl-2-oxopyrrolidin-3-yl)isoxazol-3-yl)phenyl)isoindolin-1-one], the IC50 in assay [1] and in assay [2] was over 0.501 µM throughout.
